Assay [1] concerns the target T1, Gal3 (Homo sapiens, UniProt P17931). As to conditions: Table 1, comparison galectin antagonists; cited from earlier work.
For assay [2], the target named is T1, Gal3. Description: Solid-phase assay, blocking Gal3 binding (inhibition curves, FIG. 2). The source says:
For the purposes of this disclosure, an “inhibition curve” is a graphical representation used in pharmacology and biochemistry to show how an inhibitor affects the activity of an enzyme, a biological process, or the like. Typically, an inhibition curve plots the concentration of an inhibitor on the x-axis and the corresponding reduction in an enzyme activity (or another measurable response) on the y-axis. An inhibition curve may help visualize the relationship between inhibitor concentration and its effectiveness. As a nonlimiting example, an inhibition curve may be used to determine a half-maximal inhibitory concentration or IC50 value. For the purposes of this disclosure, half-maximal inhibitory concentration or IC50 is the concentration of an inhibitor needed to reduce the activity of a receptor or an enzyme by 50%. A small IC50 value typically indicates a stronger binding affinity between an inhibitor and its target, and vice versa. IC50 is a commonly used indication regarding a drug's efficacy and potency and is often used in pharmacological research. For the purposes of this disclosure, drug potency is the amount of a drug needed to produce a given effect. […] It is often measured using the EC50, i.e., the concentration at which 50% of the maximum effect is observed. […]

T1 sequence (P17931 whole entry, species assumed): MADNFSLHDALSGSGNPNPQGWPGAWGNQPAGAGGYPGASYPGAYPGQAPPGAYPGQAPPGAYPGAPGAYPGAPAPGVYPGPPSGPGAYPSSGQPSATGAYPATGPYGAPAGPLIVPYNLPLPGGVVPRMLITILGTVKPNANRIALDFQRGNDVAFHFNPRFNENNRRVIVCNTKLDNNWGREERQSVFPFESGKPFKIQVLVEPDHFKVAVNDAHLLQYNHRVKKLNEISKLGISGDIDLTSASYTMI

As to `OC[C@H]1O[C@@H](S[C@@H]2O[C@H](CO)[C@H](O)[C@H](n3cc(-c4cccc(F)c4)nn3)[C@H]2O)[C@H](O)[C@@H](n2cc(-c3cccc(F)c3)nn2)[C@H]1O` [TD139], the “Specificity to Gal3” value in assay [1] is on record as “No”. For orientation: IC50 means the concentration at which inhibition is half-maximal. A high value points to weaker potency in that assay. Regarding `CC(=O)N[C@H]1C(O)O[C@H](CO)[C@H](O)[C@@H]1O[C@@H]1O[C@H](CO)[C@H](O)[C@H](O)[C@H]1O` (some centres unmarked) [synthetic TFD, Galβ1-3GalNAc], the IC50 in assay [2] turned out to be 200 µM.

The values above are taken from US12533394B2, “Compositions and methods for treating metabolic disorders” (GlycoMantra Inc., priority 2023, dated 2026).
